{
  "source": "patent US20220388964A1",
  "about": "(HiberCell, Inc., priority 2019, published 2022)",
  "data": [
    {"target": "GCN2 (Homo sapiens, UniProt Q9P2K8)", "sequence (Q9P2K8 whole entry)": "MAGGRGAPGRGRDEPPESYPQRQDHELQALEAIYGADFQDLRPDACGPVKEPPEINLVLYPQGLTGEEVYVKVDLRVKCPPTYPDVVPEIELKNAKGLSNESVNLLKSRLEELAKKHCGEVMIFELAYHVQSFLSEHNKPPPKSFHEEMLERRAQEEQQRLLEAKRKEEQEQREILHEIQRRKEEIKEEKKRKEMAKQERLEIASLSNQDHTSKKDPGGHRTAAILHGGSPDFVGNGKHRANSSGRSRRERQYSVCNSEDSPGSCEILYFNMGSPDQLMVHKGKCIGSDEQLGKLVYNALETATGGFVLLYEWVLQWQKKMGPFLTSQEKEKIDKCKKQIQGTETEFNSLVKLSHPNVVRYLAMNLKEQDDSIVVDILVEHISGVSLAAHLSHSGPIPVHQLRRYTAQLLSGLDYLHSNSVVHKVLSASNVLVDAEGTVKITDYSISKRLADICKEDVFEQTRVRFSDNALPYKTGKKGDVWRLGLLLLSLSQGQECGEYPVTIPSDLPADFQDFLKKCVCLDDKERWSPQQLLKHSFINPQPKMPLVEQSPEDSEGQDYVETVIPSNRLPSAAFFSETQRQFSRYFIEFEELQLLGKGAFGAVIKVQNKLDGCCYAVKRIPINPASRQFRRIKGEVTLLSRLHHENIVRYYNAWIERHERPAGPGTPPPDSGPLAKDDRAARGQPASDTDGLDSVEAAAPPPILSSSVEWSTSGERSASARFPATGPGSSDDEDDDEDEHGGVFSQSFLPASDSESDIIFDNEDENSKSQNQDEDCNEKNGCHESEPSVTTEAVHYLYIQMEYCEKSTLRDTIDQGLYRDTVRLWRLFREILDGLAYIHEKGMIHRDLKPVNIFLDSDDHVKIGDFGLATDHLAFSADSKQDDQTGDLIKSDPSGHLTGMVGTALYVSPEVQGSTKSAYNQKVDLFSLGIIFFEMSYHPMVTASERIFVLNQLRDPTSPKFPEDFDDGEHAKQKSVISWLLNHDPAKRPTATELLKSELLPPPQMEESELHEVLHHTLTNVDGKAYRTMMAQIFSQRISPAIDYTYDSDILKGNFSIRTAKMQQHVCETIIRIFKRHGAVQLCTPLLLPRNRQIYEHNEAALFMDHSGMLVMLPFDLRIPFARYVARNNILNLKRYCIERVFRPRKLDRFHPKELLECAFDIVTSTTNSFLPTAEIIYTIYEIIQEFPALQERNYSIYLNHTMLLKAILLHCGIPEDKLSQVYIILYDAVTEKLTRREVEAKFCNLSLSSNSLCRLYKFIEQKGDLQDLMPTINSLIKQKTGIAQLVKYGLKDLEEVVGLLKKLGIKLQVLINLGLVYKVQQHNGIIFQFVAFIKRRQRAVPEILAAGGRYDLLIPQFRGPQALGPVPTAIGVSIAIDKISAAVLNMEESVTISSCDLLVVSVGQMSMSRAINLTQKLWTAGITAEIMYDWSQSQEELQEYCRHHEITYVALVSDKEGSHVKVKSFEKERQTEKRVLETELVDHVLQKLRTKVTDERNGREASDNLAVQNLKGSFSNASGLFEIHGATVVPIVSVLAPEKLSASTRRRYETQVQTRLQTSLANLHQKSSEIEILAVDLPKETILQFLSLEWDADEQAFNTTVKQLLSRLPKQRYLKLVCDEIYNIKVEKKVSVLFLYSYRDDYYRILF", "experiment": "TR-FRET biochemical assay for inhibition of GCN2 (Example 106, for Example 1-4BB)", "conditions": "Table 8", "units": {"IC50": "µM"}, "values": [
      {"smiles": "Cc1nn(C)cc1S(=O)(=O)Nc1ccc(F)c(-c2ccc3c(-c4ncc[nH]4)n[nH]c3c2F)c1F", "note": "[Example 2I, N-(2,4-difluoro-3-(7-fluoro-3-(1H-imidazol-2-yl)-1H-indazol-6-yl)phenyl)-1,3-dimethyl-1H-pyrazole-4-sulfonamide]", "IC50": "0.5 to 2.5"},
      {"smiles": "O=S(=O)(Nc1ccc(F)c(-c2ccc3c(-c4ncc[nH]4)n[nH]c3c2F)c1F)c1cncc(Cl)c1", "note": "[Example 2CE]", "IC50": "< 0.5"},
      {"smiles": "Cn1cc(S(=O)(=O)Nc2ccc(F)c(-c3ccc4c(-c5ncc[nH]5)n[nH]c4c3F)c2F)nn1", "note": "[Example 2W, N-(2,4-difluoro-3-(7-fluoro-3-(1H-imidazol-2-yl)-1H-indazol-6-yl)phenyl)-1-methyl-1H-1,2,3-triazole-4-sulfonamide]", "IC50": "2.5 to 10"},
      {"smiles": "COc1ncc(Cl)cc1S(=O)(=O)Nc1ccc(F)c(-c2ccc3c(C(=O)NC(C)C)n[nH]c3c2F)c1F", "note": "[Example 2CK, 6-(3-((5-chloro-2-methoxy-pyridine)-3-sulfonamido)-2,6-difluorophenyl)-7-fluoro-N-isopropyl-1H-indazole-3-carboxamide]", "IC50": "< 0.5"},
      {"smiles": "Cc1cccc(S(=O)(=O)Nc2ccc(F)c(-c3ccc4c(-c5ncc[nH]5)n[nH]c4c3F)c2F)c1C", "note": "[Example 2AI, N-(2,4-difluoro-3-(7-fluoro-3-(1H-imidazol-2-yl)-1H-indazol-6-yl)phenyl)-2,3-dimethylbenzenesulfonamide]", "IC50": "< 0.5"},
      {"smiles": "Cc1oncc1S(=O)(=O)Nc1ccc(F)c(-c2ccc3c(-c4ncc[nH]4)n[nH]c3c2F)c1F", "note": "[Example 2AE, N-(2,4-difluoro-3-(7-fluoro-3-(1H-imidazol-2-yl)-1H-indazol-6-yl)phenyl)-5-methylisoxazole-4-sulfonamide]", "IC50": "> 10"},
      {"smiles": "N#Cc1cccc(S(=O)(=O)Nc2ccc(F)c(-c3ccc4c(-c5ncc[nH]5)n[nH]c4c3F)c2F)c1", "note": "[Example 2BQ, 3-cyano-N-(2,4-difluoro-3-(7-fluoro-3-(1H-imidazol-2-yl)-1H-indazol-6-yl)phenyl)-benzenesulfonamide]", "IC50": "< 0.5"},
      {"smiles": "CCn1cc(S(=O)(=O)Nc2ccc(F)c(-c3ccc4c(-c5ncc[nH]5)n[nH]c4c3F)c2F)cn1", "note": "[Example 2D, N-(2,4-difluoro-3-(7-fluoro-3-(1H-imidazol-2-yl)-1H-indazol-6-yl)phenyl)-1-ethyl-1H-pyrazole-4-sulfonamide]", "IC50": "2.5 to 10"},
      {"smiles": "COc1ncc(Cl)cc1S(=O)(=O)Nc1ccnc(-c2ccc3c(-c4ncc[nH]4)n[nH]c3c2)c1F", "note": "[Example 2CB, N-(2-(3-(1H-imidazol-2-yl)-1H-indazol-6-yl)-3-fluoro-pyridin-4-yl)-5-chloro-2-methoxypyridinc-3-sulfonamide]", "IC50": "< 0.5"},
      {"smiles": "Cn1cc(S(=O)(=O)Nc2ccc(F)c(-c3ccc4c(-c5ncc[nH]5)n[nH]c4c3F)c2F)c(Cl)n1", "note": "[Example 2H, 3-chloro-N-(2,4-difluoro-3-(7-fluoro-3-(1H-imidazol-2-yl)-1H-indazol-6-yl)phenyl)-1-methyl-1H-pyrazole-4-sulfonamide]", "IC50": "0.5 to 2.5"},
      {"smiles": "Cc1ccc(S(=O)(=O)Nc2ccc(F)c(-c3ccc4c(-c5ncc[nH]5)n[nH]c4c3F)c2F)c(C)n1", "note": "[Example 2AA, N-(2,4-difluoro-3-(7-fluoro-3-(1H-imidazol-2-yl)-1H-indazol-6-yl)phenyl)-2,6-dimethyl-pyridine-3-sulfonamide]", "IC50": "< 0.5"}
    ]},
    {"target": "GCN2 (Homo sapiens, UniProt Q9P2K8)", "experiment": "TR-FRET biochemical assay for inhibition of GCN2 (Example 106, for Example 1-4BB)", "conditions": "Table 9", "units": {"IC50": "µM"}, "values": [
      {"smiles": "Cc1ncc(F)cc1S(=O)(=O)Nc1ncc(F)c(-c2ccc3c(-c4ncc[nH]4)n[nH]c3c2F)c1F", "note": "[Example 3F, N-(3,5-difluoro-4-(7-fluoro-3-(1H-imidazol-2-yl)-1H-indazol-6-yl)pyridin-2-yl)-5-fluoro-2-methylpyridine-3-sulfonamide]", "IC50": "< 0.5"},
      {"smiles": "COc1ncc(F)cc1S(=O)(=O)Nc1ccc(F)c(-c2ccc3c(C(=O)NC[C@H](O)CO)n[nH]c3c2F)c1F", "note": "[Example 3AI, 6-(2,6-difluoro-3-((5-fluoro-2-methoxypyridine)-3-sulfonamido)phenyl)-N-((R)-2,3-dihydroxypropyl)-7-fluoro-1H-indazole-3-carboxamide]", "IC50": "< 0.5"},
      {"smiles": "O=C1CCc2c1cc(F)cc2S(=O)(=O)Nc1ccc(F)c(-c2ccc3c(C(=O)Nc4cn[nH]c4)n[nH]c3c2F)c1F", "note": "[Example 4AD]", "IC50": "< 0.5"},
      {"smiles": "COc1ncc(F)cc1S(=O)(=O)Nc1cccc(-c2ccc3c(C(=O)NC[C@H](O)CO)n[nH]c3c2F)c1F", "note": "[Example 3AY, 6-(2-fluoro-3-((5-fluoro-2-methoxypyridine)-3-sulfonamido)phenyl)-N-((S)-2,3-dihydroxypropyl)-7-fluoro-1H-indazole-3-carboxamide]", "IC50": "0.5 to 2.5"},
      {"smiles": "COc1ncncc1S(=O)(=O)Nc1ccc(F)c(-c2ccc3c(C(=O)NCCCN(C)C)n[nH]c3c2F)c1F", "note": "[Example 3CM, 6-(2,6-difluoro-3-((4-methoxypyrimidine)-5-sulfonamido)phenyl)-N-(3-(dimethylamino)propyl)-7-fluoro-1H-indazole-3-carboxamide]", "IC50": "> 10"},
      {"smiles": "COc1ncc(F)cc1S(=O)(=O)Nc1ccc(F)c(-c2ccc3c(C(=O)NCC#N)n[nH]c3c2F)c1F", "note": "[Example 3AW, N-(cyanomethyl)-6-(2,6-difluoro-3-((5-fluoro-2-methoxypyridine)-3-sulfon-amido)phenyl)-7-fluoro-1H-indazole-3-carboxamide]", "IC50": "< 0.5"},
      {"smiles": "COc1ncc(Cl)cc1S(=O)(=O)Nc1ccc(F)c(-c2ccc3c(C(=O)Nc4cc(F)cc(Cl)c4)n[nH]c3c2F)c1F", "note": "[Example 3DA, 6-(3-((5-chloro-2-methoxy-pyridine)-3-sulfonamido)-2,6-difluorophenyl)-N-(3-chloro-5-fluorophenyl)-7-fluoro-1H-indazole-3-carboxamide]", "IC50": "2.5 to 10"},
      {"smiles": "COc1ncc(Cl)cc1S(=O)(=O)Nc1ccc(F)c(-c2ccc3c(C(=O)NC[C@H]4CCCN4C)n[nH]c3c2F)c1F", "note": "[Example 3D, 6-(3-((5-chloro-2-methoxy-pyridine)-3-sulfonamido)-2,6-difluorophenyl)-7-fluoro-N-(((R)-1-methylpyrrolidin-2-yl)methyl)-1H-indazole-3-carboxamide]", "IC50": "< 0.5"},
      {"smiles": "COc1ncc(F)cc1S(=O)(=O)Nc1ccc(F)c(-c2ccc3c(C(=O)NCCCNC(C)=O)n[nH]c3c2F)c1F", "note": "[Example 3AV, N-(3-acetamidopropyl)-6-(2,6-difluoro-3-((5-fluoro-2-methoxypyridine)-3-sulfon-amido)phenyl)-7-fluoro-1H-indazole-3-carboxamide]", "IC50": "< 0.5"},
      {"smiles": "COc1nc(C)c(C#N)cc1S(=O)(=O)Nc1ccc(F)c(-c2ccc3c(-c4ncc[nH]4)n[nH]c3c2F)c1F", "note": "[Example 3DK, 5-cyano-N-(2,4-difluoro-3-(7-fluoro-3-(1H-imidazol-2-yl)-1H-indazol-6-yl)phenyl)-2-methoxy-6-methylpyridine-3-sulfonamide]", "IC50": "< 0.5"},
      {"smiles": "COc1ncc(F)cc1S(=O)(=O)Nc1ccnc(-c2ccc3c(-c4ncc[nH]4)n[nH]c3c2F)c1C#N", "note": "[Example 29, N-(3-Cyano-2-(7-fluoro-3-(1H-imidazol-2-yl)-1H-indazol-6-yl)pyridin-4-yl)-5-fluoro-2-methoxypyridine-3-sulfonamide]", "IC50": "2.5 to 10"},
      {"smiles": "COc1ncc(F)cc1S(=O)(=O)Nc1ccc(C#N)c(-c2ccc3c(C(N)=O)n[nH]c3c2F)c1F", "note": "[Example 3BR, 6-(6-cyano-2-fluoro-3-((5-fluoro-2-methoxypyridine)-3-sulfonamido)phenyl)-7-fluoro-1H-indazole-3-carboxamide]", "IC50": "0.5 to 2.5"}
    ]}
  ]
}
